Assay results taken from ChEMBL document CHEMBL3627608, “Crystal structures of human RIP2 kinase catalytic domain complexed with ATP-competitive inhibitors: Foundations for understanding inhibitor selectivity” (Bioorg Med Chem, 2015).

Legend:
[1] = molecular target: T1, Ephrin type-A receptor 1 (Homo sapiens) (UniProt P21709); test: Inhibition of EPHA1 (unknown origin) at 10 uM after 120 mins P33 radiolabeled kinase activity assay
T1 sequence (whole entry): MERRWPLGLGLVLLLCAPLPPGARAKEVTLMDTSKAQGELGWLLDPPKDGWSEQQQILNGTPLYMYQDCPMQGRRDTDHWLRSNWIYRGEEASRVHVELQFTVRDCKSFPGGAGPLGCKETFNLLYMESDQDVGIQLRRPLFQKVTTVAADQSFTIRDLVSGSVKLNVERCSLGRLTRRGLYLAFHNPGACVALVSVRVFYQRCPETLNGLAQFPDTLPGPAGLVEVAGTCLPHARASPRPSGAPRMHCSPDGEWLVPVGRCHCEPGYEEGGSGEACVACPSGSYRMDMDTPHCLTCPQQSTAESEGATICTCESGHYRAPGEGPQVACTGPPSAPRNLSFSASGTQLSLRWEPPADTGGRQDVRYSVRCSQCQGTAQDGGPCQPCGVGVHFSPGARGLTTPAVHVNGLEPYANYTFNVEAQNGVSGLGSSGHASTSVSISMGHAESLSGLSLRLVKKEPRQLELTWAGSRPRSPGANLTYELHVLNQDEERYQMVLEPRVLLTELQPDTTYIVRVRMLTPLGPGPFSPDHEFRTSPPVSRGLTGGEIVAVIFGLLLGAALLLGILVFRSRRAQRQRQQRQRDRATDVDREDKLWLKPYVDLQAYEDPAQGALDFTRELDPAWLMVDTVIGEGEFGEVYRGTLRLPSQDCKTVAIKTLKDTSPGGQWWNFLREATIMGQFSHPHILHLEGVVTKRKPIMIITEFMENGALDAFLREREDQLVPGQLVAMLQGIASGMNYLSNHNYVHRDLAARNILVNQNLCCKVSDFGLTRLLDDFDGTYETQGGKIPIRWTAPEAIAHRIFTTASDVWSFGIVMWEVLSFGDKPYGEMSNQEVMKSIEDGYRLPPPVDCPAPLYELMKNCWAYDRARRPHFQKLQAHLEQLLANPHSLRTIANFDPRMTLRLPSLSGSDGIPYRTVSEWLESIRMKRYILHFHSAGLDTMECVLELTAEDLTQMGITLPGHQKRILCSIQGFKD

[2] = molecular target: T2, Receptor-interacting serine/threonine-protein kinase 1 (Homo sapiens) (UniProt Q13546); test: Inhibition of RIP (unknown origin) at 10 uM after 120 mins P33 radiolabeled kinase activity assay
T2 sequence (whole entry): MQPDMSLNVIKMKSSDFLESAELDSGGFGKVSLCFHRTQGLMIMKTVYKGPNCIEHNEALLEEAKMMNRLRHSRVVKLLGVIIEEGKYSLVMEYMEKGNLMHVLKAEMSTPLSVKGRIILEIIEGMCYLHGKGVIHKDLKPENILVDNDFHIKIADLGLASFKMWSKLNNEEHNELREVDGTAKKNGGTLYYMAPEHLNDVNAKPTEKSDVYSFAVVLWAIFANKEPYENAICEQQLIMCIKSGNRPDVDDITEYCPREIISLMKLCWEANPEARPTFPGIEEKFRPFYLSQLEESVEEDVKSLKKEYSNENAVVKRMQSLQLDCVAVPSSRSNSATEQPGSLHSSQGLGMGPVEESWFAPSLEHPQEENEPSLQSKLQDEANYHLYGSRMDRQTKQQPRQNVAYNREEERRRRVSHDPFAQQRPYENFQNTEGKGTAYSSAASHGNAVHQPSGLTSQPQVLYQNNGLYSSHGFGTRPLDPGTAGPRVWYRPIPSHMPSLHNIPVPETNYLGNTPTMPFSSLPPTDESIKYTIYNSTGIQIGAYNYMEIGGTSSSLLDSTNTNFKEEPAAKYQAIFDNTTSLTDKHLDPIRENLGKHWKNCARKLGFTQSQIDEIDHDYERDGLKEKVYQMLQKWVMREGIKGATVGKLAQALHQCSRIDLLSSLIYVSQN

[3] = molecular target: Serine/threonine-protein kinase 32C (Homo sapiens) (UniProt Q86UX6); test: Inhibition of STK32C (unknown origin) at 10 uM after 120 mins P33 radiolabeled kinase activity assay
Sequence of Serine/threonine-protein kinase 32C (Homo sapiens) (Q86UX6 whole entry): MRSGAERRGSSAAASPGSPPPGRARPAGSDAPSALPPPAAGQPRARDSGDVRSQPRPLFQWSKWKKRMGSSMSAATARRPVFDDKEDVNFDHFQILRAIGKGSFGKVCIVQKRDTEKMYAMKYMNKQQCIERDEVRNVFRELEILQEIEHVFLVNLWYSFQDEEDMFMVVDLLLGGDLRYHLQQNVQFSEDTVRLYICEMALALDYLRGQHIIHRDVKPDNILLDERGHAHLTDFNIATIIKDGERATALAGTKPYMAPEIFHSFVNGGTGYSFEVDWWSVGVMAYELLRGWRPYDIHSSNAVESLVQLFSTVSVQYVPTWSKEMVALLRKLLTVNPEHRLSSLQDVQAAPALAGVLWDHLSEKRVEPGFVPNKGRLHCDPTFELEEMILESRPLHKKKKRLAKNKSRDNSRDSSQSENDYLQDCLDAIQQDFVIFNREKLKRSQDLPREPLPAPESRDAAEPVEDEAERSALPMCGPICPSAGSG

[4] = molecular target: Dual specificity testis-specific protein kinase 1 (Homo sapiens) (UniProt Q15569); test: Inhibition of TESK1 (unknown origin) at 10 uM after 120 mins P33 radiolabeled kinase activity assay
Sequence of Dual specificity testis-specific protein kinase 1 (Homo sapiens) (Q15569 whole entry, looked up): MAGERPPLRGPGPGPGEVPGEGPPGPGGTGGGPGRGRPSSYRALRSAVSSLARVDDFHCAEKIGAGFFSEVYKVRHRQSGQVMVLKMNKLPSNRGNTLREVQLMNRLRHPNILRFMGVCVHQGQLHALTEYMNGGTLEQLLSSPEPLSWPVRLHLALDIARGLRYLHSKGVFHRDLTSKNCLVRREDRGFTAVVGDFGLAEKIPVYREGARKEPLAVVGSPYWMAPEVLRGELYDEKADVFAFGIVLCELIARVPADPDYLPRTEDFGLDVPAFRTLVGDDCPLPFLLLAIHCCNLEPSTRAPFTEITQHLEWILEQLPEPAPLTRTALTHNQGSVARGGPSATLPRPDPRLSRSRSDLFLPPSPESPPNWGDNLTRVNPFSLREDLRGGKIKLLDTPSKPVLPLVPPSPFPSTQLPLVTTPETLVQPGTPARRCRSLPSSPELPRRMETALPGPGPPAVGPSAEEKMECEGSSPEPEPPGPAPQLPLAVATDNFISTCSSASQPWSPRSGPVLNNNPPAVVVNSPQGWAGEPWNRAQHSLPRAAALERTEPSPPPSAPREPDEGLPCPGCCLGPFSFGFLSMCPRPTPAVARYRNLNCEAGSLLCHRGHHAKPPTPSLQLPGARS

[5] = molecular target: RAC-beta serine/threonine-protein kinase (Homo sapiens) (UniProt P31751); test: Inhibition of AKT2 (unknown origin) at 10 uM after 120 mins P33 radiolabeled kinase activity assay
Sequence of RAC-beta serine/threonine-protein kinase (Homo sapiens) (P31751 whole entry): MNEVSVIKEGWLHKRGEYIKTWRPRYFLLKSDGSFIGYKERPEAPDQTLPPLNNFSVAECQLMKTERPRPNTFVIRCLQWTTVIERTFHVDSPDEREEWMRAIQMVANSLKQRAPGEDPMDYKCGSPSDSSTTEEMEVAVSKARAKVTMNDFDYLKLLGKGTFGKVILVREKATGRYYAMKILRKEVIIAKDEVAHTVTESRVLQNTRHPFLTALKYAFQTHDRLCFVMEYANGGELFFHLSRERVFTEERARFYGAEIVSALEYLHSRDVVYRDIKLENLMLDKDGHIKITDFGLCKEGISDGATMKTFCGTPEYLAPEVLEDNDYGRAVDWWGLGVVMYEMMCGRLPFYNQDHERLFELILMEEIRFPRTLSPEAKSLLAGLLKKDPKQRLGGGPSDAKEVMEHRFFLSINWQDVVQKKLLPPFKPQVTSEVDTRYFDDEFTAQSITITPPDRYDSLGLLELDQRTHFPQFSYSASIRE

[6] = molecular target: T3, Tyrosine-protein kinase Mer (Homo sapiens) (UniProt Q12866); test: Inhibition of c-MER (unknown origin) at 10 uM after 120 mins P33 radiolabeled kinase activity assay
T3 sequence (whole entry): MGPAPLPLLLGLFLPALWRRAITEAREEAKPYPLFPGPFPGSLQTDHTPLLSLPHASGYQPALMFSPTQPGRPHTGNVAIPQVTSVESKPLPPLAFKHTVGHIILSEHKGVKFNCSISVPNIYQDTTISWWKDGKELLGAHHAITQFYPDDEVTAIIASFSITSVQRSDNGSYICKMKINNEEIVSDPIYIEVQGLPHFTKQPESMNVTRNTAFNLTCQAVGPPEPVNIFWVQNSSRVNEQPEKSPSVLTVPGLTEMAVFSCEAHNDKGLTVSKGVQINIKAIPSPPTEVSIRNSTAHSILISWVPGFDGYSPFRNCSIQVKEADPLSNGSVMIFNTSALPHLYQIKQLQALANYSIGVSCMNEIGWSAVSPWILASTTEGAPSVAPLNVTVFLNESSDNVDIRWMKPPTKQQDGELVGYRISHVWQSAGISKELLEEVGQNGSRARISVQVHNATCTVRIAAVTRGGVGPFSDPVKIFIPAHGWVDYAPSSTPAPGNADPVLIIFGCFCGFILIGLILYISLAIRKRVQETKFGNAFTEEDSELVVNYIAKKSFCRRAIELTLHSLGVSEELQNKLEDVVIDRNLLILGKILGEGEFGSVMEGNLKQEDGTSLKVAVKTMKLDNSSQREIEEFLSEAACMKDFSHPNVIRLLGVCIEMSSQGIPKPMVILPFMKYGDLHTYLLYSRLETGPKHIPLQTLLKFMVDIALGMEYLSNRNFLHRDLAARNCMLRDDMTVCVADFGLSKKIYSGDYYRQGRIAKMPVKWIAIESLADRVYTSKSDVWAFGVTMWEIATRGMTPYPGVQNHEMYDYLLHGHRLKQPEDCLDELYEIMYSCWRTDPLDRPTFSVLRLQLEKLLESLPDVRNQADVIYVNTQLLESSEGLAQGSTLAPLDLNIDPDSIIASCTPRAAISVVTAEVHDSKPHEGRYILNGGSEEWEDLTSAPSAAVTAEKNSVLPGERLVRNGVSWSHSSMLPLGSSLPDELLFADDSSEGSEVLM

[7] = molecular target: CDK9/Cyclin K (Homo sapiens) (UniProt P50750+O75909); test: Inhibition of CDK9/cyclin K (unknown origin) at 10 uM after 120 mins P33 radiolabeled kinase activity assay; format: protein-complex assay

| Structure (SMILES) | inhibition [1] [%] | inhibition [2] [%] | inhibition [3] [%] | inhibition [4] [%] | inhibition [5] [%] | inhibition [6] [%] | inhibition [7] [%] |
| --- | --- | --- | --- | --- | --- | --- | --- |
| COCCNC(=O)c1ccc2c(c1)nc(-c1cnc(-c3ccc(Cl)cc3)[nH]1)n2CCOC | 16.6 | 33.1 | 13 | 4.86 | 18.9 | 30.8 | 3.39 |
| CS(=O)(=O)c1cccc(Nc2nccc(-c3sc(N4CCOCC4)nc3-c3cccc(NS(=O)(=O)c4c(F)cccc4F)c3)n2)c1 | 91.4 | 54.4 | 8.37 | 97 | 21.6 | 98.2 | 6.34 |
| CC(C)(C)c1cc(NC(=O)Nc2ccc(Oc3ccncc3)cc2)no1 | 86.2 | 53.2 | 12.9 | 20 | 20.6 | 77.9 | 37 |
